# Source: patent US8778954B2, “Phenylpyridine derivative and medicinal agent comprising same” (Kowa Company, Ltd., priority 2009, dated 2014)
# How the values were obtained:
# [1] = system: db/db mice; experiment: Impaired glucose tolerance improving activity in type 2 diabetes model mouse; assay type: in vivo; conditions: oral once a day, Example 23 10 mg/kg, Example 21 30 mg/kg, telmisartan 30 mg/kg; for plasma glucose concentration: 2 weeks after initiation, FIG. 2; for AUC of plasma glucose in the glucose tolerance test (120 minutes after glucose solution): 4 weeks, glucose 2 g/kg, FIG. 3
# Protocol: By using 7-week old db/db mice, the body weight and the plasma glucose concentration of each mouse were measured before administration of the medicine, and group separation was performed by blocking assignment so that there was no variation of these values between respective groups. Solvent control (0.5% MC), 5 mg/kg rosiglitazone, 30 mg/kg telmisartan, 10 mg/kg of the compound of Example 23, and 30 mg/kg of the compound of Example 21 were orally administered iteratively for 4 weeks, once a day. Blood collecting was performed from the orbital vein plexus, and the plasma glucose concentration was measured at 2 weeks after the initiation of the administration. Furthermore, oral glucose tolerance test was performed at 4 weeks after the initiation of the administration. Specifically, the mouse was fasted for 24 hours from the night before the glucose tolerance test, and then a glucose solution was orally administered at a dose of 2 g/kg. The blood was collected from the tail vein of the mouse at 15, 30, 60, and 120 minutes after the administration of the glucose solution, and the concentration of the plasma glucose was measured. The area surrounded with the measured plasma glucose concentration and the time was taken as the area under the curve (AUC), and AUC for 120 minutes after administration of the glucose solution was estimated from the trapezoidal method.
# Vehicle, Rosiglitazone, Telmisartan, Compound 23, and Compound 21 in FIGS. 2 and 3 represent solvent control, rosiglitazone, telmisartan, the compound of Example 23, and the compound of Example 21, respectively. The vertical axis of FIG. 2 represents the plasma glucose concentration. The data in FIG. 2 represents individual values and average values of each individual. The vertical axis of FIG. 3 represents the area under the curve surrounded with the plasma glucose concentration and the time (for 120 minutes after administration of the glucose solution). The data in FIG. 3 represents individual values and average values of each individual. […] Such activities were not confirmed for the telmisartan administration group.
# [2] = system: Zucker diabetic fatty (ZDF) rats; experiment: Activity for diabetic nephropathy in Zucker diabetic fatty rats; assay type: in vivo, rat; conditions: 3 mg/kg once a day for 15 weeks; for elimination amount of urinary total protein per 18 hours: FIG. 4; for plasma triglyceride concentration: FIG. 5; for plasma total cholesterol concentration: FIG. 6; for renal protecting activity (diabetic nephropathy): overall conclusion
# Protocol: By using 8-week old Zucker diabetic fatty (ZDF) rats, the body weight, the elimination amount of urinary total protein (UTP), the plasma triglyceride concentration (TG), and the plasma total cholesterol concentration (TC) of each rat were measured before administration of the medicine, and group separation was performed by blocking assignment so that there was no variation of these values between respective groups. Solvent control (0.5% MC), 3 mg/kg telmisartan, 3 mg/kg of the compound of Example 21, and 3 mg/kg of the compound of Example 23 were administered iteratively for 15 weeks once a day. UTP, TG, and TC were measured according to a general method during the administration period at 4, 8, 12, and 15 weeks after the administration.
# Vehicle, Telmisartan, Compound 23, and Compound 21 in FIGS. 4, 5, and 6 represent solvent control, telmisartan, the compound of Example 23, and the compound of Example 21, respectively. The horizontal axis of FIG. 4-1 represents time (weeks after administration), and the vertical axis represents the elimination amount of urinary total protein per 18 hours. The data in FIG. 4-1 represents average values of each individual in each point, wherein -●- represents Vehicle (solvent control), -♦- represents Telmisartan, -▪- represents Compound 23 (the compound of Example 23), and -▴- represents Compound 21 (the compound of Example 21). The vertical axis of FIG. 4-2 represents the elimination amount of urinary total protein per 18 hours. The data in FIG. 4-2 represents individual values and average values of each individual +standard deviation.
# The vertical axis of FIG. 5 represents the plasma triglyceride concentration. The data in FIG. 5 represents individual values and average values of each individual.
# The vertical axis of FIG. 6 represents the plasma total cholesterol concentration. The data in FIG. 6 represents individual values and average values of each individual.
# Furthermore, it was believed that one reason for the potent activity may be related to improving activity of lipid metabolism, and it is believed that the potent activity is attributed to activities other than the angiotensin receptor antagonistic activity.
SMILES,plasma glucose concentration [1],AUC of plasma glucose in the glucose tolerance test (120 minutes after glucose solution) [1],elimination amount of urinary total protein per 18 hours [2],plasma triglyceride concentration [2],plasma total cholesterol concentration [2],renal protecting activity (diabetic nephropathy) [2]
"CCCCc1nc(C(C)C)n(-c2ncc(OCC)cn2)c(=O)c1Cc1ccc(-c2ccccc2-c2noc(=O)[nH]2)nc1 [Example 21, 3-{2-{5-{[4-butyl-1-(5-ethoxypyrimidin-2-yl)-2-isopropyl-6-oxo-1,6-dihydropyrimidin-5-yl]methyl}pyridin-2-yl}phenyl}-1,2,4-oxadiazol-5(4H)-one]",remarkable lowering activity of the plasma glucose concentration,remarkably lowering AUC,"remarkably inhibited increase of the elimination amount of urinary total protein, and their activity was more potent than that of telmisartan",remarkably lowered the plasma triglyceride concentration,"remarkably lowered the plasma total cholesterol concentration, and such activity was more potent than that of telmisartan",potent renal protecting activity
"CCCCc1nc(C2CC2)n(-c2ncc(OCC)cn2)c(=O)c1Cc1ccc(-c2ccccc2-c2noc(=O)[nH]2)nc1 [Example 23, 3-{2-{5-{[4-butyl-2-cyclopropyl-1-(5-ethoxypyrimidin-2-yl)-6-oxo-1,6-dihydropyrimidin-5-yl]methyl}pyridin-2-yl}phenyl}-1,2,4-oxadiazol-5(4H)-one]",remarkable lowering activity of the plasma glucose concentration,remarkably lowering AUC,"remarkably inhibited increase of the elimination amount of urinary total protein, and their activity was more potent than that of telmisartan",remarkably lowered the plasma triglyceride concentration,"remarkably lowered the plasma total cholesterol concentration, and such activity was more potent than that of telmisartan",potent renal protecting activity
